Results as given in ChEMBL document CHEMBL1124302, “Nucleoside conjugates. 10. Synthesis and antitumor activity of 1-beta-D-arabinofuranosylcytosine 5'-diphosphate-1,2-dipalmitins” (J Med Chem, 1988).

Assays:
Type in all cases: organism-based
Mus musculus [1] = assay: Toxicity in mice after 17-29 days at a dose of 80 mg/kg/day; 21/9.5; details: in vivo
Mus musculus [2] = assay: Toxicity in mice after 17-35 days at a dose of 400 mg/kg/day; 19/9; details: in vivo
Mus musculus [3] = assay: Toxicity in mice after 7-8 days at a dose of 100 mg/kg/day; 7/9; details: in vivo
Mus musculus [4] = assay: Toxicity in mice after 7-8 days at a dose of 200 mg/kg/day; 8/9; details: in vivo
Mus musculus [5] = assay: Toxicity in mice after 15-18 days at a dose of 60 mg/kg/day; 15.5/8.5; details: in vivo
Mus musculus [6] = assay: Toxicity in mice after 17-21 days at a dose of 60 mg/kg/day; 21/8.5; details: in vivo
Mus musculus [7] = assay: Toxicity in mice after 12-13 days at a dose of 100 mg/kg/day; 12/8; details: in vivo
Mus musculus [8] = assay: Toxicity in mice after 9-12 days at a dose of 200 mg/kg/day; 10.5/9.5; details: in vivo
Mus musculus [9] = assay: Toxicity in mice after 13-15 days at a dose of 60 mg/kg/day; 14/8.5; details: in vivo
Mus musculus [10] = assay: Toxicity in mice after 7 days at a dose of 200 mg/kg/day; 7/9; details: in vivo, 168 h
Mus musculus [11] = assay: Toxicity in mice after 35->45 days at a dose of 133 mg/kg/day; 45/9.5; details: in vivo, 1080 h
Mus musculus [12] = assay: Toxicity in mice after 8->45 days at a dose of 300 mg/kg/day; 45/9; details: in vivo, 1080 h
Mus musculus [13] = assay: Toxicity in mice after 29->45 days at a dose of 60 mg/kg/day; 45/9; details: in vivo, 1080 h
Mus musculus [14] = assay: Toxicity in mice after 14-45 days at a dose of 100 mg/kg/day; 37.5/9; details: in vivo
Mus musculus [15] = assay: Toxicity in mice after 15-45 days at a dose of 60 mg/kg/day; 30/9; details: in vivo
Mus musculus [16] = assay: Toxicity in mice after 32->45 days at a dose of 400 mg/kg/day; 45/9; details: in vivo, 1080 h
Mus musculus [17] = assay: Toxicity in mice after 11-12 days at a dose of 19 and 38 mg/kg/day; 11/9.5; details: in vivo
Mus musculus [18] = assay: Toxicity in mice after 10 days at a dose of 95 and 190 mg/kg/day; 10/9.5; details: in vivo, 240 h
Mus musculus [19] = assay: Toxicity in mice after 7-14 days at a dose of 100 mg/kg/day; 11/9.5; details: in vivo
Mus musculus [20] = assay: Toxicity in mice after 9-11 days at a dose of 200 mg/kg/day; 10/9.5; details: in vivo

CCCCCCCCCCCCCCCC(=O)OC[C@@H](COP(=O)(O)OP(=O)(O)OC[C@H]1O[C@@H](n2ccc(N)nc2=O)[C@@H](O)[C@@H]1O)OC(=O)CCCCCCCCCCCCCCC
median survival time (Mus musculus [1]): 21 days
median survival time (Mus musculus [2]): 19 days

Nc1ccn([C@@H]2O[C@H](CO)[C@@H](O)[C@@H]2O)c(=O)n1 [CYTARABINE]
median survival time (Mus musculus [3]): 7 days
median survival time (Mus musculus [4]): 8 days
median survival time (Mus musculus [5]): 15.5 days
median survival time (Mus musculus [6]): 21 days
median survival time (Mus musculus [7]): 12 days
median survival time (Mus musculus [8]): 10.5 days
median survival time (Mus musculus [9]): 14 days
median survival time (Mus musculus [10]): 7 days

CCCCCCCCCCCCCCCC(=O)OC[C@H](COP(=O)(O)OP(=O)(O)OC[C@H]1O[C@@H](n2ccc(N)nc2=O)[C@@H](O)[C@@H]1O)OC(=O)CCCCCCCCCCCCCCC
median survival time (Mus musculus [11]): > 45 days
median survival time (Mus musculus [12]): > 45 days
median survival time (Mus musculus [13]): > 45 days

CCCCCCCCCCCCCCCC(=O)OCC(COP(=O)(O)OP(=O)(O)OC[C@H]1O[C@@H](n2ccc(N)nc2=O)[C@@H](O)[C@@H]1O)OC(=O)CCCCCCCCCCCCCCC (mixture of isomers)
median survival time (Mus musculus [14]): 37.5 days
median survival time (Mus musculus [15]): 30 days
median survival time (Mus musculus [16]): > 45 days

CCCCCCCCCCCCCCCC(=O)OC[C@@H](COP(=O)(O)O)OC(=O)CCCCCCCCCCCCCCC.Nc1ccn([C@@H]2O[C@H](COP(=O)(O)O)[C@@H](O)[C@@H]2O)c(=O)n1
median survival time (Mus musculus [17]): 11 days
median survival time (Mus musculus [18]): 10 days

CCCCCCCCCCCCCCCC(=O)OC[C@H](COP(=O)(O)O)OC(=O)CCCCCCCCCCCCCCC.Nc1ccn([C@@H]2O[C@H](COP(=O)(O)O)[C@@H](O)[C@@H]2O)c(=O)n1
median survival time (Mus musculus [19]): 11 days
median survival time (Mus musculus [20]): 10 days
